Converted amounts (≈) assume the structure as drawn.
Assays:
MDA-MB-231 [1] = assay: Cytotoxicity against human MDA-MB-231 cells cultured as 2.5D cells assessed as increase in dead cell count at 125 ug/ml incubated for 12 hrs by tryphan blue based analysis (Rvb=7700x10^3No_unit); assay type: functional; conditions: dose 125 µg/ml
MDA-MB-231 [2] = assay: Cytotoxicity against human MDA-MB-231 cells cultured as 3D cells assessed as cell death at 125 ug/ml measured after 12 hrs by OCT/imaris based analysis relative to control; assay type: functional; conditions: dose 125 µg/ml
[3] = Therapeutic index, ratio of HC50 for sheep RBC to IC50 for cytotoxicity against human MDA-MB-231 cultured as 2D cells; assay type: toxicity, cell-based; conditions: sheep (RBC) and human (MDA-MB-231), sheep red blood cells versus MDA-MB-231 cells, 2D culture; read-out: TI
MDA-MB-231 [4] = assay: Cytotoxicity against human MDA-MB-231 cultured as 2.5D cells assessed as inhibition of cell growth measured after 12 hrs by CellTiter-Glo luciferase detection reagent based assay; assay type: functional; conditions: MDA-MB-231, 12 h
[5] = Selectivity ratio of IC50 for human MDA-MB-231 cultured as 3D cells to IC50 for human MDA-MB-231 cultured as 2D cells; assay type: functional
[6] = Therapeutic index, ratio of IC50 for cytotoxicity against human dermal fibroblast cultured as 2.5 D cells to IC50 for cytotoxicity against human MDA-MB-231 cultured as 2.5 D cells; assay type: toxicity, cell-based; conditions: read-out: TI
MDA-MB-231 [7] = assay: Cytotoxicity against human MDA-MB-231 cultured as 2D cells assessed as inhibition of cell growth measured after 12 hrs by CCK8 assay; assay type: functional, cell-based; conditions: MDA-MB-231, 12 h
[8] = Therapeutic index, ratio of IC50 for cytotoxicity against human dermal fibroblast cultured as 3D cells to IC50 for cytotoxicity against human MDA-MB-231 cultured as 3D cells; assay type: toxicity, cell-based; conditions: human dermal fibroblasts versus MDA-MB-231 cells, 3D culture, read-out: TI
[9] = Selectivity ratio of IC50 for human MDA-MB-231 cultured as 2.5D cells to IC50 for human MDA-MB-231 cultured as 2D cells; assay type: functional
[10] = Therapeutic index, ratio of HC50 for Sheep RBC to IC50 for cytotoxicity against human MDA-MB-231 cultured as 2.5D cells; assay type: toxicity, cell-based; conditions: sheep (RBC) and human (MDA-MB-231), sheep red blood cells versus MDA-MB-231 cells, 2.5D culture; read-out: TI
MDA-MB-231 [11] = assay: Cytotoxicity against human MDA-MB-231 cells cultured as 2.5D cells assessed as cell death at 125 ug/ml measured after 12 hrs by OCT/imaris based analysis relative to control; assay type: functional; conditions: dose 125 µg/ml
MDA-MB-231 [12] = assay: Cytotoxicity against human MDA-MB-231 cultured as 3D cells assessed as inhibition of cell growth measured after 12 hrs by CellTiter-Glo luciferase detection reagent based assay; assay type: functional; conditions: MDA-MB-231, 12 h
MDA-MB-231 [13] = assay: Cytotoxicity against human MDA-MB-231 cells cultured as 2.5D cells assessed as cell death at 125 ug/ml measured after 12 hrs by tryphan blue based analysis relative to control; assay type: functional; conditions: dose 125 µg/ml
[14] = Cytotoxicity against human dermal fibroblast cultured as 2D cells assessed as reduction in cell viability measured after 12 hrs by CCK8 assay; assay type: toxicity, cell-based; conditions: human dermal fibroblasts (NHDF), 2D culture
[15] = Therapeutic index, ratio of IC50 for cytotoxicity against human dermal fibroblast cultured as 2D cells to IC50 for cytotoxicity against human MDA-MB-231 cultured as 2D cells; assay type: toxicity, cell-based; conditions: human dermal fibroblasts versus MDA-MB-231 cells, 2D culture, read-out: TI
MDA-MB-231 [16] = assay: Cytotoxicity against human MDA-MB-231 cells cultured as 2.5D cells assessed as decrease in live cell count at 125 ug/ml incubated for 12 hrs by tryphan blue based analysis (Rvb=22000x10^3No_unit); assay type: functional; conditions: dose 125 µg/ml
Jurkat = assay: Antiproliferative activity against human Jurkat T cells assessed as inhibition of cell growth at 25 ug/ml relative to control; assay type: functional
MDA-MB-231 [17] = assay: Cytotoxicity against human MDA-MB-231 cells cultured as 3D cells assessed as increase in dead cell count at 125 ug/ml incubated for 12 hrs by tryphan blue based analysis (Rvb=11000x10^3No_unit); assay type: functional; conditions: dose 125 µg/ml
[18] = Hemolytic activity in Sheep RBC assessed as hemolysis at 31 ug/ml by microplate reader analysis relative to control; assay type: toxicity, cell-based, Ovis aries, Erythrocyte; conditions: sheep red blood cells (erythrocytes), at 31 µg/mL, read-out: Activity
MDA-MB-231 [19] = assay: Cytotoxicity against human MDA-MB-231 cells cultured as 3D cells assessed as decrease in live cell count at 125 ug/ml incubated for 12 hrs by tryphan blue based analysis (Rvb=20900x10^3No_unit); assay type: functional; conditions: dose 125 µg/ml
MDA-MB-231 [20] = assay: Cytotoxicity against human MDA-MB-231 cells cultured as 3D cells assessed as cell death measured after 12 hrs relative to control; assay type: functional
[21] = Therapeutic index, ratio of HC50 for Sheep RBC to IC50 for cytotoxicity against human MDA-MB-231 cultured as 3D cells; assay type: toxicity, cell-based; conditions: sheep (RBC) and human (MDA-MB-231), sheep red blood cells versus MDA-MB-231 cells, 3D culture; read-out: TI
MDA-MB-231 [22] = assay: Cytotoxicity against human MDA-MB-231 cells cultured as 2.5D cells assessed as cell death measured after 12 hrs relative to control; assay type: functional
[23] = Hemolytic activity against Sheep RBC assessed as hemolysis by microplate reader analysis; assay type: toxicity, cell-based, Ovis aries, Erythrocyte; conditions: sheep red blood cells (erythrocytes)
MDA-MB-231 [24] = assay: Cytotoxicity against human MDA-MB-231 cells cultured as 3D cells assessed as cell death at 125 ug/ml measured after 12 hrs by tryphan blue based analysis relative to control; assay type: functional; conditions: dose 125 µg/ml
MDA-MB-231 [25] = assay: Cytotoxicity against human MDA-MB-231 cells cultured as 3D cells assessed as increase in dead cell count at 62.5 ug/ml incubated for 12 hrs by tryphan blue based analysis (Rvb=11000x10^3No_unit); assay type: functional; conditions: dose 62.5 µg/ml
MDA-MB-231 [26] = assay: Cytotoxicity against human MDA-MB-231 cells cultured as 3D cells assessed as decrease in live cell count at 62.5 ug/ml incubated for 12 hrs by tryphan blue based analysis (Rvb=20900x10^3No_unit); assay type: functional; conditions: dose 62.5 µg/ml
MDA-MB-231 [27] = assay: Cytotoxicity against human MDA-MB-231 cells cultured as 2.5D cells assessed as increase in dead cell count at 62.5 ug/ml incubated for 12 hrs by tryphan blue based analysis (Rvb=7700x10^3No_unit); assay type: functional; conditions: dose 62.5 µg/ml
MDA-MB-231 [28] = assay: Cytotoxicity against human MDA-MB-231 cells cultured as 2.5D cells assessed as cell death at 62.5 ug/ml measured after 12 hrs by tryphan blue based analysis relative to control; assay type: functional; conditions: dose 62.5 µg/ml
MDA-MB-231 [29] = assay: Cytotoxicity against human MDA-MB-231 cells cultured as 3D cells assessed as cell death at 62.5 ug/ml measured after 12 hrs by tryphan blue based analysis relative to control; assay type: functional; conditions: dose 62.5 µg/ml
MDA-MB-231 [30] = assay: Cytotoxicity against human MDA-MB-231 cells cultured as 3D cells assessed as cell death at 62.5 ug/ml measured after 12 hrs by OCT/imaris based analysis relative to control; assay type: functional; conditions: dose 62.5 µg/ml
MDA-MB-231 [31] = assay: Cytotoxicity against human MDA-MB-231 cells cultured as 2.5D cells assessed as decrease in live cell count at 62.5 ug/ml incubated for 12 hrs by tryphan blue based analysis (Rvb=22000x10^3No_unit); assay type: functional; conditions: dose 62.5 µg/ml
MDA-MB-231 [32] = assay: Cytotoxicity against human MDA-MB-231 cells cultured as 2.5D cells assessed as cell death at 62.5 ug/ml measured after 12 hrs by OCT/imaris based analysis relative to control; assay type: functional; conditions: dose 62.5 µg/ml
[33] = Growth inhibition of human dermal fibroblast cultured as 2D cells by tryphan blue based analysis; assay type: toxicity, cell-based; conditions: human dermal fibroblasts (NHDF), 2D culture

Row | Structure (SMILES) | selectivity ratio [3] | IC50 (MDA-MB-231 [4]) [mg/L] | Ratio IC50 [5] | selectivity ratio [6] | IC50 (MDA-MB-231 [7]) [mg/L] | selectivity ratio [8] | Ratio IC50 [9] | selectivity ratio [10] | IC50 (MDA-MB-231 [12]) [mg/L] | IC50 at 12 h [14] [mg/L] | selectivity ratio [15] | hemolysis at 31 ug/ml [18] [%] | Activity (MDA-MB-231 [20]) [%] | selectivity ratio [21] | Activity (MDA-MB-231 [22]) [%] | HC50 [23] [µg/mL] | also measured
1 | CCOC(=O)CCCCCCC/C=C\CCCCCCC(C)O[C@@H]1O[C@H](COC(C)=O)[C@@H](O)[C@H](O)[C@H]1O[C@@H]1O[C@H](COC(C)=O)[C@@H](O)[C@H](O)[C@H]1O (stereo not given in full) | 4.63 | 120 (≈ 163 µM) | 5 | 0.36 | 27 (≈ 36.7 µM) | 0.33 | 4.5 | 1.04 | 130 (≈ 177 µM) | 43 (≈ 58.5 µM) | 1.59 | > 10 | 88.2 | 0.96 | 80.2 | 125 | Activity (MDA-MB-231 [1]): 16317 10^3No_unit; Activity (MDA-MB-231 [2]): 70%; Activity (MDA-MB-231 [11]): 70%; Activity (MDA-MB-231 [13]): 70%; Activity (MDA-MB-231 [16]): 5500 10^3No_unit; inhibition at 25 µg/mL (Jurkat): 90%; Activity (MDA-MB-231 [17]): 22917 10^3No_unit; Activity (MDA-MB-231 [19]): 3667 10^3No_unit; Activity (MDA-MB-231 [24]): 70%
2 | CC(=O)OC[C@H]1O[C@H]2OC(C)CCCCCC/C=C\CCCCCCCC(=O)O[C@H]3[C@H](O)[C@@H](O)[C@H](O[C@@H]2[C@@H](O)[C@@H]1O)O[C@@H]3COC(C)=O (stereo not given in full) | 8.93 | 38 (≈ 55.2 µM) | 2.5 | 0.82 | 14 (≈ 20.3 µM) | 0.94 | 3 | 3.29 | 33 (≈ 47.9 µM) | 31 (≈ 45 µM) | 2.21 | > 10 | 89.3 | 3.79 | 88.4 | 125 | Activity (MDA-MB-231 [25]): 17783 10^3No_unit; Activity (MDA-MB-231 [26]): 3300 10^3No_unit; Activity (MDA-MB-231 [27]): 13933 10^3No_unit; Activity (MDA-MB-231 [28]): 70%; Activity (MDA-MB-231 [29]): 70%; Activity (MDA-MB-231 [30]): 70%; Activity (MDA-MB-231 [31]): 3117 10^3No_unit; Activity (MDA-MB-231 [32]): 70%
3 | COc1cccc2c1C(=O)c1c(O)c3c(c(O)c1C2=O)C[C@@](O)(C(=O)CO)C[C@@H]3O[C@H]1C[C@H](N)[C@H](O)[C@H](C)O1 [DOXORUBICIN] |  |  |  |  |  |  |  |  |  |  |  |  |  |  |  |  | GI50 [33]: 30 mg/L (≈ 55.2 µM)

From ChEMBL document CHEMBL5316361 (J Nat Prod, 2023)
